The results in this text go back to US10399972B2, “Tricyclic compounds as inhibitors of mutant IDH enzymes” (Merck Sharp & Dohme Corp., priority 2015, dated 2019).

In the assay the target is R132H mutant IDH1 enzyme (Homo sapiens (Human), UniProt O75874, R132H). Description: R132H IDH1 Enzymatic Assay. It counts as biochemical. The settings on record: 1.5 nM final, 30 min preincubation, 60 min reaction, Kinase-GLO luminescence. On the procedure: R132H IDH1 Enzymatic Assay
R132H mutant IDH1 enzyme, sequence (O75874 whole entry R132H): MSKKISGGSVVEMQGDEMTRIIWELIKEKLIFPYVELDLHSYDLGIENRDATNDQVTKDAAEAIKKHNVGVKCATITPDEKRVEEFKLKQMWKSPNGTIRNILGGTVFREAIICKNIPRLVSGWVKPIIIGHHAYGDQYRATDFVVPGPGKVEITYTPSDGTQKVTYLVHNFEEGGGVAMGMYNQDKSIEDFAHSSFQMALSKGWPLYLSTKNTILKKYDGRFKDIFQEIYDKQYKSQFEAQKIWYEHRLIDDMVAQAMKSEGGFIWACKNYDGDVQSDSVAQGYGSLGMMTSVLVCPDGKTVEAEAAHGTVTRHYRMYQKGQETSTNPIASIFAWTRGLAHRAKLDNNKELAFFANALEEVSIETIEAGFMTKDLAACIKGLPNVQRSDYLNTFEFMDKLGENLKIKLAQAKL
Each test compound (10 mM stock in DMSO) is diluted in DMSO to make a 10-point, 3-fold dilution series. 125 nL of each dilution or DMSO alone is dispensed to a 384-well Greiner Lumitrac 200 assay plate using an Echo® Liquid Handler. To each well of the plate is added 20 uL of enzyme in assay buffer or assay buffer alone. Assay buffer consists of 50 mM sodium phosphate, pH 7.0, 50 mM magnesium chloride, 50 mM sodium chloride, and 0.01% (w/v) bovine serum albumin. When present, the R132H mutant IDH1 enzyme is at a working concentration of 1.875 nM (final concentration in assay of 1.5 nM). The assay plate is allowed to incubate for 30 minutes at room temperature and 5 uL of 5× substrate mixture (2.5 uM nicotinamide adenine dinucleotide phosphate, 100 uM adenosine diphosphate, 7.5 mM glyceraldehyde-3-phosphate, 7.5 ug/mL of spinach glyceraldehyde-3-phosphate dehydrogenase, 25 nM phosphoglycerate kinase, and 5 mM alpha-ketoglutarate in assay buffer) is added to all wells. The reaction plate is incubated for 60 minutes followed by addition of 25 uL of Promega Kinase-GLO reagent to all wells and 10-minute incubation.
Luminescence is measured using a PerkinElmer Envision plate reader. The percent activity of each dilution is determined as the ratio of background corrected signal to the background corrected signal of wells receiving only DMSO. IC50 values are determined by fitting percent activity data to a four-parameter logistic dose response equation. The IC50 values of the exemplified compounds are included in Table 8.
(In general: In Kinase-Glo more light means more ATP remaining.)
As usually defined, the IC50 is the concentration at which inhibition is half-maximal. Read a low IC50 as greater potency in that assay. Compound `Cc1c(N2C[C@H]3CC[C@@H]2CO3)ccc2c1N(C(=O)[C@H]1CC[C@H](OC(C)C)CC1)Cc1cccnc1N2` [Example 61, (trans-4-isopropoxycyclohexyl){7-methyl-8-[(1R,4R)-2-oxa-5-azabicyclo[2.2.2]oct-5-yl]-5,11-dihydro-6H-pyrido[2,3-b][1,5]benzodiazepin-6-yl}methanone] registered an IC50 of 0.0541 µM. Under `CC(C)O[C@H]1CC[C@H](C(=O)N2Cc3cc(F)cnc3Nc3cc(F)c([C@@H]4COCCO4)cc32)OC1` (single isomer, unassigned) [Example 36] stands 0.0237 µM; under `O=C(C1CCN(CC(F)(F)F)CC1)N1Cc2cccnc2Nc2cc(F)ccc21` [Example 74, (9-Fluoro-5,11-dihydro-6H-benzo[b]pyrido[2,3-e][1,4]diazepin-6-yl)(1-(2,2,2-trifluoroethyl)piperidin-4-yl)methanone], 0.174 µM.

Turning to `CC(C)O[C@H]1CC[C@H](C(=O)N2Cc3cc(F)cnc3Nc3cc(F)c(N4CC5CCC4CO5)cc32)OC1` (stereo partly drawn) [Example 44, (8-(2-oxa-5-azabicyclo[2.2.2]octan-5-yl)-3,9-difluoro-5,11-dihydro-6H-benzo[b]pyrido[2,3-e][1,4]diazepin-6-yl)((2R,5S)-5-isopropoxytetrahydro-2H-pyran-2-yl)methanone], the midpoint of inhibition, the IC50, lay at 0.0114 µM. Under `CC(C)O[C@H]1CC[C@H](C(=O)N2Cc3cc(F)cnc3Nc3cc(F)c(N4C[C@@H]5C[C@H]4CO5)cc32)OC1` [Example 46, (8-((1S,4S)-2-oxa-5-azabicyclo[2.2.1]heptan-5-yl)-3,9-difluoro-5,11-dihydro-6H-benzo[b]pyrido[2,3-e][1,4]diazepin-6-yl)((2R,5S)-5-isopropoxytetrahydro-2H-pyran-2-yl)methanone] stands 0.0179 µM; under `O=C(C1CCN(CC(F)(F)F)CC1)N1Cc2cc(F)cnc2Nc2ccc(N3CC4CCC3CO4)cc21` (single isomer, unassigned) [Example 8, (8-(2-oxa-5-azabicyclo[2.2.2]octan-5-yl)-3-fluoro-5,11-dihydro-6H-benzo[b]pyrido[2,3-e][1,4]diazepin-6-yl)(1-(2,2,2-trifluoroethyl)piperidin-4-yl)methanone], 0.0254 µM. Under `O=C(C1CCN(CC(F)(F)F)CC1)N1Cc2cc(F)cnc2Nc2cc(F)c(-c3ccn[nH]3)cc21` [Example 51, (3,9-difluoro-8-(1H-pyrazol-5-yl)-5,11-dihydro-6H-benzo[b]pyrido[2,3-e][1,4]diazepin-6-yl)(1-(2,2,2-trifluoroethyl)piperidin-4-yl)methanone] stands 0.0036 µM. The compound `CC(C)O[C@H]1CC[C@H](C(=O)N2Cc3cccnc3Nc3cc(F)c(N4C[C@@H]5C[C@H]4CO5)cc32)OC1` [Example 64, (8-((1S,4S)-2-Oxa-5-azabicyclo[2.2.1]heptan-5-yl)-9-fluoro-5H-benzo[b]pyrido[2,3-e][1,4]diazepin-6(11H)-yl)((2R,5S)-5-isopropoxytetrahydro-2H-pyran-2-yl)methanone] gave a half-maximal inhibitory concentration (IC50) of 0.0463 µM.

In turn, `CC(C)O[C@H]1CC[C@H](C(=O)N2c3cc(N4CCOCC4)ccc3Nc3ncccc3C2C)CC1` (stereo partly drawn) [Example 66, (Trans-4-isopropoxycyclohexyl)(5-methyl-8-morpholino-5,11-dihydro-6H-benzo[b]pyrido[2,3-e][1,4]diazepin-6-yl)methanone] had a half-maximal inhibitory concentration (IC50) of 0.0719 µM. The figure for `O=C(C1CCN(CC(F)(F)F)CC1)N1Cc2cc(F)cnc2Nc2cc(F)c(N3C[C@@H]4CC[C@H]3CO4)cc21` [Example 32, (8-((1S,4S)-2-oxa-5-azabicyclo[2.2.2]octan-5-yl)-3,9-difluoro-5,11-dihydro-6H-benzo[b]pyrido[2,3-e][1,4]diazepin-6-yl)(1-(2,2,2-trifluoroethyl)piperidin-4-yl)methanone] is 0.0181 µM; for `CC(C)O[C@H]1CC[C@H](C(=O)N2Cc3cc(F)cnc3Nc3ccc(NCC4(CCl)CCCOC4)cc32)OC1` (stereo partly drawn) [Example 42, (8-(((3-(chloromethyl)tetrahydro-2H-pyran-3-yl)methyl)amino)-3-fluoro-5,11-dihydro-6H-benzo[b]pyrido[2,3-e][1,4]diazepin-6-yl)((2R,5S)-5-isopropoxytetrahydro-2H-pyran-2-yl)methanone] it is 0.0136 µM; for `O=C(C1CCN(CC(F)(F)F)CC1)N1Cc2cc(F)cnc2Nc2cc(F)c(N3C[C@H]4CC[C@@H]3CO4)cc21` [Example 31, (8-((1R,4R)-2-oxa-5-azabicyclo[2.2.2]octan-5-yl)-3,9-difluoro-5,11-dihydro-6H-benzo[b]pyrido[2,3-e][1,4]diazepin-6-yl)(1-(2,2,2-trifluoroethyl)piperidin-4-yl)methanone] it is 0.018 µM. The figure for `CC(C)O[C@H]1CC[C@H](C(=O)N2Cc3cc(F)cnc3Nc3cc(F)c(N4C[C@@H]5C[C@H]4CO5)cc32)CC1` [Example 24, {3,9-difluoro-8-[(1S,4S)-2-oxa-5-azabicyclo[2.2.1]hept-5-yl]-5,11-dihydro-6H-pyrido[2,3-b][1,5]benzodiazepin-6-yl}[trans-4-(propan-2-yloxy)cyclohexyl]methanone] is 0.0056 µM; for `O=C(C1CCN(CC(F)(F)F)CC1)N1Cc2cccnc2Nc2cc(F)c([C@H]3COCCO3)cc21` [Example 57, (S)-(8-(1,4-dioxan-2-yl)-9-fluoro-5,11-dihydro-6H-benzo[b]pyrido[2,3-e][1,4]diazepin-6-yl)(1-(2,2,2-trifluoroethyl)piperidin-4-yl)methanone] it is 0.0122 µM; for `CC(C)O[C@H]1CC[C@H](C(=O)N2Cc3cccnc3Nc3cc(F)c(C4COCCO4)cc32)OC1` (stereo partly drawn) [Example 38, (8-(1,4-dioxan-2-yl)-9-fluoro-5,11-dihydro-6H-benzo[b]pyrido[2,3-e][1,4]diazepin-6-yl)((2R,5S)-5-isopropoxytetrahydro-2H-pyran-2-yl)methanone] it is 0.036 µM. Under `CC(C)O[C@H]1CC[C@H](C(=O)N2Cc3cccnc3Nc3ccc(N4CC5CCC4CO5)c(F)c32)CC1` (stereo partly drawn) [Example 63, [7-fluoro-8-(2-oxa-5-azabicyclo[2.2.2]oct-5-yl)-5,11-dihydro-6H-pyrido[2,3-b][1,5]benzodiazepin-6-yl](trans-4-isopropoxycyclohexyl)methanone] stands 0.057 µM. The compound `O=C(C1CCN(CC(F)(F)F)CC1)N1Cc2cc(F)cnc2Nc2cc(F)c(N3CC4(CCCOC4)C3)cc21` [Example 21, (3,9-difluoro-8-(6-oxa-2-azaspiro[3.5]nonan-2-yl)-5,11-dihydro-6H-benzo[b]pyrido[2,3-e][1,4]diazepin-6-yl)(1-(2,2,2-trifluoroethyl)piperidin-4-yl)methanone] had an IC50 of 0.0045 µM.

Compound `O=C(C1CCN(CC(F)(F)F)CC1)N1Cc2cccnc2Nc2cc(F)c(N3C[C@@H]4C[C@H]3CO4)cc21` [Example 27, (8-((1S,4S)-2-oxa-5-azabicyclo[2.2.1]heptan-5-yl)-9-fluoro-5,11-dihydro-6H-benzo[b]pyrido[2,3-e][1,4]diazepin-6-yl)(1-(2,2,2-trifluoroethyl)piperidin-4-yl)methanone] had a half-maximal inhibitory concentration (IC50) of 0.0275 µM. The figure for `CCS(=O)(=O)N1CCC(C(=O)N2Cc3cc(F)cnc3Nc3ccc(N4CC5CCC4CO5)cc32)CC1` (centres unmarked) [Example 43, (8-(2-oxa-5-azabicyclo[2.2.2]octan-5-yl)-3-fluoro-5,11-dihydro-6H-benzo[b]pyrido[2,3-e][1,4]diazepin-6-yl)(1-(ethylsulfonyl)piperidin-4-yl)methanone] is 0.087 µM.

With `Cc1cnc2c(c1)CN(C(=O)[C@H]1CC[C@H](OC(C)C)CC1)c1cc(N3C[C@@H]4CC[C@H]3CO4)ccc1N2` [Example 69, (8-((1S,4S)-2-Oxa-5-azabicyclo[2.2.2]octan-5-yl)-3-methyl-5,11-dihydro-6H-benzo[b]pyrido[2,3-e][1,4]diazepin-6-yl)(trans-4-isopropoxycyclohexyl)methanone], the IC50 was 0.103 µM. The figure for `O=C(C1CCN(CC(F)(F)F)CC1)N1Cc2cc(F)cnc2Nc2ccc(N3[C@@H]4CO[C@H]5[C@@H]4OC[C@H]53)cc21` [Example 7, (3-fluoro-8-((3R,3aR,6R,6aR)-hexahydro-3,6-epiminofuro[3,2-b]furan-7-yl)-5,11-dihydro-6H-benzo[b]pyrido[2,3-e][1,4]diazepin-6-yl)(1-(2,2,2-trifluoroethyl)piperidin-4-yl)methanone] is 0.0185 µM; for `CC(C)O[C@H]1CC[C@H](C(=O)N2Cc3cc(F)cnc3Nc3ccc(N4CC5(CCCOC5)C4)cc32)CC1` [Example 16, [3-fluoro-8-(6-oxa-2-azaspiro[3.5]non-2-yl)-5,11-dihydro-6H-pyrido[2,3-b][1,5]benzodiazepin-6-yl][trans-4-(propan-2-yloxy)cyclohexyl]methanone] it is 0.024 µM; for `CC(C)O[C@H]1CC[C@@H](C(=O)N2Cc3cc(F)cnc3Nc3ccc(N4C[C@@H]5C[C@H]4CO5)cc32)CC1` [Example 19, (8-((1S,4S)-2-oxa-5-azabicyclo[2.2.1]heptan-5-yl)-3-fluoro-5,11-dihydro-6H-benzo[b]pyrido[2,3-e][1,4]diazepin-6-yl)(cis-4-isopropoxycyclohexyl)methanone] it is 0.006 µM.
